From US20230407243A1, “GENETIC PLATFORM TO INVESTIGATE THE FUNCTIONS OF BACTERIAL DRUG EFFLUX PUMPS” (priority 2022, published 2023)
Read-outs that look alike come from different tables or passages of the source.

Key:
Assay type in all cases: cell-based, Escherichia coli
[1] = test system: E. coli EKO-35; experiment: microbe, parasite or virus in culture; conditions: for Fold change of MICs: EKO-35 compared to EKO-35 (reference); for Minimum inhibitory concentration (MIC), EKO-35 / Minimum Inhibitory Concentration, EKO-35 / MIC: technical duplicate; for MIC: Escherichia coli, EKO35
How it was run: (§1)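 Strains are grown overnight in LB at 37 °C, adjusted to OD600 ~1.0 in PBS (pH 7.4) and diluted 1/2000 into MHB II. They are incubated with twofold compound dilutions for 18 h at 37 °C. MIC comes from background-subtracted OD600.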

[2] = test system: E. coli ΔtolC; experiment: microbe, parasite or virus in culture; conditions: for Minimum inhibitory concentration (MIC), ΔtolC: Table 10, without pore; for Minimum inhibitory concentration (MIC), ΔtolC / Minimum Inhibitory Concentration, ΔtolC: technical duplicate; for Minimum Inhibitory Concentration, ΔtolC: Table 13A, non-porinated; for MIC: Escherichia coli, 18 h, read-out: Minimum Inhibitory Concentration, ΔtolC
How it was run: as §1

[3] = test system: wild-type E. coli K-12 str. BW25113; experiment: microbe, parasite or virus in culture; conditions: technical duplicate; for MIC: Escherichia coli, BW25113
How it was run: as §1

[4] = test system: EKO-35 araC::acrB; experiment: MIC susceptibility profiling, efflux platform; conditions: for Fold change of MICs: EKO-35 araC::acrB compared to EKO-35; for Minimum Inhibitory Concentration, EKO-35 araC::acrB / MIC: Table 13A, non-porinated, technical duplicate; for MIC: Escherichia coli, read-out: Minimum Inhibitory Concentration, EKO-35 araC::acrB
How it was run: as §1

[5] = test system: EKO-35 araC::acrD; experiment: MIC susceptibility profiling, efflux platform; conditions: for Fold change of MICs: EKO-35 araC::acrD compared to EKO-35; for Minimum Inhibitory Concentration, EKO-35 araC::acrD / MIC: Table 13A, non-porinated, technical duplicate; for MIC: Escherichia coli, read-out: Minimum Inhibitory Concentration, EKO-35 araC::acrD
How it was run: as §1

[6] = test system: EKO-35 araC::mdtBC; experiment: MIC susceptibility profiling, efflux platform; conditions: for Fold change of MICs: EKO-35 araC::mdtBC compared to EKO-35; for Minimum Inhibitory Concentration, EKO-35 araC::mdtBC / MIC: Table 13B, non-porinated, technical duplicate; for MIC: Escherichia coli, read-out: Minimum Inhibitory Concentration, EKO-35 araC::mdtBC
How it was run: as §1

[7] = test system: EKO-35 araC::mexCD (MexCD from P. aeruginosa); experiment: MIC susceptibility profiling, efflux platform; conditions: for Fold change of MICs: EKO-35 araC::mexCD compared to EKO-35; for Minimum Inhibitory Concentration, EKO-35 araC::mexCD / MIC: Table 13B, non-porinated, technical duplicate; for MIC: read-out: Minimum Inhibitory Concentration, EKO-35 araC::mexCD
How it was run: as §1

[8] = test system: EKO-35-Pore; experiment: MIC susceptibility profiling, porinated strain; conditions: for Fold changes of MICs: EKO-35-Pore compared to EKO-35-Pore (reference); for Minimum inhibitory concentration (MIC), Pore EKO-35 / Minimum inhibitory concentration, EKO-35-Pore / MIC: technical duplicate; for MIC: Escherichia coli
How it was run: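 Strains carry the fhuA ΔC/Δ4L pore integrated between glmS and pstS under a constitutive promoter, with pore activity checked by vancomycin susceptibility. Overnight LB cultures were adjusted in PBS pH 7.4 to OD600 ~1.0 and diluted 1/2000 into MHB II. 2-fold compound titrations were read by OD600 after 18 h at 37 °C.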

[9] = Table 10, without pore, read-out: Minimum inhibitory concentration (MIC), EKO-35
[10] = Table 13A, non-porinated, read-out: Minimum Inhibitory Concentration, EKO-35
[11] = Table 10, without pore, read-out: Minimum inhibitory concentration (MIC), K-12
[12] = Table 13A, non-porinated, read-out: Minimum Inhibitory Concentration, K-12
[13] = Table 10, with pore, read-out: Minimum inhibitory concentration (MIC), Pore EKO-35
[14] = Table 14A, porinated, read-out: Minimum inhibitory concentration, EKO-35-Pore

Molecule | Fold change of MICs [1] [fold] | Minimum inhibitory concentration (MIC), EKO-35 ([1]; Table 10, without pore) [mg/L] | Minimum Inhibitory Concentration, EKO-35 ([1]; Table 13A, non-porinated) [µg/mL] | Minimum inhibitory concentration (MIC), ΔtolC [2] [mg/L] | Minimum Inhibitory Concentration, ΔtolC [2] [µg/mL] | Minimum inhibitory concentration (MIC), K-12 ([3]; Table 10, without pore) [mg/L] | Minimum Inhibitory Concentration, K-12 ([3]; Table 13A, non-porinated) [µg/mL] | Fold change of MICs [4] [fold] | Minimum Inhibitory Concentration, EKO-35 araC::acrB [4] [µg/mL] | Fold change of MICs [5] [fold] | Minimum Inhibitory Concentration, EKO-35 araC::acrD [5] [µg/mL] | Fold change of MICs [6] [fold] | Minimum Inhibitory Concentration, EKO-35 araC::mdtBC [6] [µg/mL] | Fold change of MICs [7] [fold] | Minimum Inhibitory Concentration, EKO-35 araC::mexCD [7] [µg/mL] | Fold changes of MICs [8] [fold] | Minimum inhibitory concentration (MIC), Pore EKO-35 ([8]; Table 10, with pore) [mg/L] | Minimum inhibitory concentration, EKO-35-Pore ([8]; Table 14A, porinated) [mg/L] | MIC [1, 9] [mg/L] | MIC [1, 10] [mg/L] | further results
deoxycholate | 1 | 375 | 375 | 187.5 | 187.5 | 1500 | 1500 | 4 | 1500 | 4 | 1500 | 4 | 1500 | 4 | 1500 | 1 | 187.5 | 187.5 |  |  | efflux pump-mediated resistance vs EKO-35 ([5]; AcrD): confirmed; efflux pump-mediated resistance vs EKO-35 ([6]; MdtBC): conferred resistance
CC1(C)S[C@@H]2[C@H](NC(=O)[C@H](N)c3ccccc3)C(=O)N2[C@H]1C(=O)O [ampicillin] | 1 |  |  | 25 |  |  |  | 4 |  | 4 |  | 1 |  | 1 |  | 1 |  |  | 25 | 25 | MIC [2]: 25 mg/L; MIC [3, 11]: 100 mg/L; MIC [3, 12]: 100 mg/L; MIC [4]: 100 mg/L; MIC [5]: 100 mg/L; MIC [6]: 25 mg/L; MIC [7]: 25 mg/L; MIC [8, 13]: 1.56 mg/L; MIC [8, 14]: 1.56 mg/L
COC(=O)c1sc(N2CCCC2)c(C#N)c1-c1cccs1 [compound 10] | 1 | 160 | 160 | 10 | 10 | 160 | 160 | 1 | 160 | 1 | 160 | 1 | 160 | 1 | 160 | 1 | 10 | 10 |  |  | 
CN[C@@H]1[C@H](O)[C@H](NC)[C@H]2O[C@@]3(O)C(=O)C[C@@H](C)O[C@H]3O[C@@H]2[C@H]1O [Spectinomycin] | 1 |  |  | 6.25 |  |  |  | 1 |  | 1 |  | 1 |  | 1 |  | 1 |  |  | 25 | 25 | MIC [2]: 6.25 mg/L; MIC [3, 11]: 25 mg/L; MIC [3, 12]: 25 mg/L; MIC [4]: 25 mg/L; MIC [5]: 25 mg/L; MIC [6]: 25 mg/L; MIC [7]: 25 mg/L
CC[C@H]1OC(=O)[C@H](C)[C@@H](O[C@H]2C[C@@](C)(OC)[C@@H](O)[C@H](C)O2)[C@H](C)[C@@H](O[C@@H]2O[C@H](C)C[C@H](N(C)C)[C@H]2O)[C@](C)(O)C[C@@H](C)CN(C)[C@H](C)[C@@H](O)[C@]1(C)O [azithromycin] | 1 |  |  | 0.781 |  |  |  | 16 |  | 1 |  | 1 |  | 4 |  | 1 |  |  | 0.781 | 0.781 | MIC [2]: 0.781 mg/L; MIC [3, 11]: 6.25 mg/L; MIC [3, 12]: 6.25 mg/L; MIC [4]: 12.5 mg/L; MIC [5]: 0.781 mg/L; MIC [6]: 0.781 mg/L; MIC [7]: 3.12 mg/L; MIC [8, 13]: 0.049 mg/L; MIC [8, 14]: 0.049 mg/L
O=c1oc(-c2ccccc2Cl)nn1-c1ccc(C(F)(F)F)cn1 [compound 5] | 1 | 20 | 20 | 10 | 10 | 320 | 320 | 16 | 320 | 2 | 40 | 1 | 10 | 16 | 320 | 1 | 20 | 20 |  |  | susceptibility of EKO-35 to the compound ([1]; synthetic efflux substrates of FIG. 12): susceptible
C=C1CCO[C@]2([C@@H](O)[C@@](C)(O)CO)NC(=O)[C@@]1(O)NC2=O [Bicyclomycin] | 1 | 200 | 200 | 200 | 200 | 200 | 200 | 1 | 200 | 1 | 200 | 1 | 200 | 1 | 200 | 1 | 200 | 200 |  |  | 
